Source: patent US20090017103A1, “Antisense oligonucleotides for prevention of metastasis formation of cancer cells” (priority 2003, published 2009)
Values joined by “and” are separate entries in the source; they are usually repeats but may differ in a detail not shown here. Equal values may be shown once. “Also recorded” adds a separate entry of the source. Marks after values point to notes of the source that are not given here.

Legend:
[1] = test system: MDA-MB-231 breast cancer cells; assay: Clonogenicity assay (colony formation); type: cell-based, human; details: for inhibition of colony formation (colony growth inhibition): single exposure
How it was run: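 MDA-MB-231 cells given lipofectamine-complexed ASO (5, 10 or 20 μM, 12 h) and/or ErPC3 (10, 14, 20 μM, 24 h), singly or in sequential cycles, then grown 48-72 h. 5000 cells plated in methylcellulose/30% FBS; MTT-stained colonies (≥30 cells) counted after 5-7 days.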

[2] = test system: MDA-MB-231^GFP cells; assay: In vivo model with pretreated MDA-MB-231^GFP cells (osteolytic bone metastasis); set-up: species or system nude rats; lesion size of the rat(s) that developed lytic metastasis, % of control / lesion sizes with respect to all animals of the group compared to untreated control / lesion size of individual animal compared to the untreated control / T/C % (mean lesion size compared to untreated control): concentration or dose not given beside the values; details: for T/C × 100: mean lesion size vs untreated control rats; for rats in which formation of osteolytic metastasis was inhibited (no visible metastasis): cells pre-exposed to ASO, observation period of eight weeks; for Incidence of metastasis: cells pretreated in vitro (10 μM);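 for Mean size of lesion: mean lesion size in relative units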
[3] = test system: MDA-MB-231^GFP cells; assay: In vivo treatment with mini-osmotic pumps (osteolytic bone metastasis model);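 for Mean size of lesion: mean lesion size in relative units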;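 for Size of lesion (per animal): lesion size in relative units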; set-up: species or system nude rats; details: for X-ray scan of hind legs: lytic lesions (in words): FIG. 5-7; for T/C: vs NSO control; for T/C × 100: mean lesion size vs NSO control rats; for Incidence of metastasis: mini-osmotic pumps s.c., 7 mg/kg daily over four weeks
[4] = observation period 8 weeks, pretreated cells
[5] = pretreated cells, after eight weeks
[6] = pretreated cells, after four weeks

Substance: 5′-GCT-TTC-TTC-GTT-TTC-ATT-TC-3′ [ASO-BSPII-6]
- % Control ([1]; Exp. III a, repeated exposure 2 × 5 μM): 91%
- Mean colony no. ([1]; Exp. III a, repeated exposure 2 × 5 μM, control 456): 415^6,8)
- % Control ([1]; Exp. III a, repeated exposure 2 × 10 μM): 82%
- Mean colony no. ([1]; Exp. III a, repeated exposure 2 × 10 μM, control 456): 373^8)
- % Control ([1]; Exp. III a, repeated exposure 2 × 20 μM): 72%
- Mean colony no. ([1]; Exp. III a, repeated exposure 2 × 20 μM, control 456): 326^8)
- % Control ([1]; Experiment I, single treatment, 5 μM): 89%
- Mean colony no. ([1]; Experiment I, single treatment, 5 μM, control 778): 692^6)
- % Control ([1]; Experiment I, single treatment, 10 μM): 81%
- Mean colony no. ([1]; Experiment I, single treatment, 10 μM, control 778): 632^7)
- % Control ([1]; Experiment I, single treatment, 20 μM): 61%
- Mean colony no. ([1]; Experiment I, single treatment, 20 μM, control 778): 478
- % Control ([1]; Experiment III b, repeated exposure 2 × 5 μM): 70%
- Mean colony no. ([1]; Experiment III b, repeated exposure 2 × 5 μM, control 517): 363^6,8)
- % Control ([1]; Experiment III b, repeated exposure 2 × 10 μM): 55%
- Mean colony no. ([1]; Experiment III b, repeated exposure 2 × 10 μM, control 517): 282^8)
- % Control ([1]; Experiment III b, repeated exposure 2 × 20 μM): 49%
- Mean colony no. ([1]; Experiment III b, repeated exposure 2 × 20 μM, control 517): 251^8)
- inhibition of colony formation (colony growth inhibition) ([1]; 5 μM): 11%
- inhibition of colony formation (colony growth inhibition) ([1]; 10 μM): 19%
- inhibition of colony formation (colony growth inhibition) ([1]; 20 μM): 39%
- repeated exposure compared with single exposure, colony formation (in words) ([1]; twofold vs single ASO exposure): no increased inhibition of colony formation as compared with single exposure
- T/C × 100 ([2]; 4 weeks): 1.6
- T/C × 100 ([2]; 6 weeks): 2.9
- T/C × 100 ([2]; 8 weeks): 9.1
- X-ray scan of hind legs: osteolytic lesions (in words) ([2]; FIG. 3 and FIG. 4, one rat each, cells pre-exposed): a minute osteolytic lesion in the tibia only; also recorded: a small lesion in the tibia
- rats in which formation of osteolytic metastasis was inhibited (no visible metastasis) [2]: two out of four
- rats in which formation of osteolytic metastasis was inhibited (no visible metastasis) ([2]; listed as ASO-BSPII-06): two of four and 2 of 4
- Incidence of metastasis ([2]; observation period 4 weeks): 1/4
- Mean size of lesion ([2]; observation period 4 weeks, pretreated cells): 3.5 R.U.
- Incidence of metastasis ([2]; observation period 6 weeks): 1/4
- Mean size of lesion ([2]; observation period 6 weeks, pretreated cells): 8.8 R.U.
- Incidence of metastasis ([2]; observation period 8 weeks): 2/4
- Mean size of lesion [2, 4]: 31.5 R.U.
- Size of lesion (per animal) [2, 4]: 106^5) R.U.
- T/C % (mean lesion size compared to untreated control) [2, 5]: 9.1%
- lesion size of individual animal compared to the untreated control [2, 5]: about 30% and 6%
- animals in which formation of lytic metastases was prevented [2, 6]: three out of four
- lesion size of individual animal compared to the untreated control [2, 6]: 6.4%
- lesion size of individual animal compared to the untreated control ([2]; pretreated cells, after six weeks): about 12%
- lesion size of the rat(s) that developed lytic metastasis ([2]; pretreated cells, week 4): 14 R.U.
- lesion size of the rat(s) that developed lytic metastasis, % of control ([2]; pretreated cells, week 4, vs mean of the two control groups (197 R.U.)): 7%
- lesion size of the rat(s) that developed lytic metastasis ([2]; pretreated cells, week 8): 63 R.U.
- lesion size of the rat(s) that developed lytic metastasis, % of control ([2]; pretreated cells, week 8, vs mean of the two control groups (416 R.U.)): 15%
- X-ray scan of hind legs: lytic lesions (in words) ([3]; eight weeks after tumor cell implantation): clear increase of lytic lesions in the tibia, however new formation of bone tissue at the edges of the lesions
- X-ray scan of hind legs: lytic lesions (in words) ([3]; four weeks after tumor cell implantation, therapy from implantation): small lytic lesions in the tibia
- X-ray scan of hind legs: lytic lesions (in words) ([3]; six weeks after tumor cell implantation): visible lytic lesions in the tibia
- X-ray scan of hind legs: lytic lesions (in words) ([3]; ten weeks after tumor cell implantation): lytic lesions are no longer visible in the region of the tibia
- animals that did not develop metastases ([3]; mini-osmotic pumps, 12 weeks): one animal out of the five
- T/C ([3]; mini-osmotic pumps, week 4): 39%
- T/C ([3]; mini-osmotic pumps, week 12): 2%
- T/C × 100 ([3]; week 4): 39
- Mean size of lesion ([3]; week 4, mini-osmotic pumps): 13 R.U.
- Size of lesion (per animal) ([3]; week 4, mini-osmotic pumps): 11 R.U. and 0 R.U. and 32 R.U. and 8 R.U. and 23 R.U.
- Incidence of metastasis ([3]; week 4): 4/5
- T/C × 100 ([3]; week 6): 18
- Mean size of lesion ([3]; week 6, mini-osmotic pumps): 32 R.U.
- Size of lesion (per animal) ([3]; week 6, mini-osmotic pumps): 39 R.U. and 0 R.U. (2×) and 83 R.U. and 37 R.U.
- Incidence of metastasis ([3]; week 6): 3/5
- T/C × 100 ([3]; week 8): 11
- Mean size of lesion ([3]; week 8, mini-osmotic pumps): 29 R.U.
- Size of lesion (per animal) ([3]; week 8, mini-osmotic pumps): 52 R.U. and 0 R.U. (2×) and 50 R.U. and 43 R.U.
- Incidence of metastasis ([3]; week 8): 3/5
- T/C × 100 ([3]; week 9): 7
- Mean size of lesion ([3]; week 9, mini-osmotic pumps): 28 R.U.
- Size of lesion (per animal) ([3]; week 9, mini-osmotic pumps): 28 R.U. and 0 R.U. (2×) and 36 R.U. and 78 R.U.
- Incidence of metastasis ([3]; week 9): 3/5
- T/C × 100 ([3]; week 10): 5
- Mean size of lesion ([3]; week 10, mini-osmotic pumps): 20 R.U.
- Size of lesion (per animal) ([3]; week 10, mini-osmotic pumps): 17 R.U. and 0 R.U. (2×) and 29 R.U. and 52 R.U.
- Incidence of metastasis ([3]; week 10): 3/5
- T/C × 100 ([3]; week 12): 2
- Mean size of lesion ([3]; week 12, mini-osmotic pumps): 9 R.U.
- Size of lesion (per animal) ([3]; week 12, mini-osmotic pumps): 0 R.U. (3×) and 18 R.U. and 29 R.U.
- Incidence of metastasis ([3]; week 12): 2/5
